Legend:
NIH mice = assay: hot plate analgesia assay (Eddy and Leimbach), with and without naloxone; type: in vivo, mouse; settings: for ED50 Dose for Hot Plate Analgesia: mice, sc, hot plate 55° C., reaction times over 60 min
Protocol: 107, 385-393, 1953]. NIH mice were dropped onto a hot plate maintained at 55° C. and the reaction time was determined. The criterion for a reaction was kicking the hind leg, attempting to jump out, or shaking a foot and turning and licking it. Reaction time for each mouse was determined at least twice before and 5, 10, 20, 30, 45 and 60 min after administration of compound.

mice = system: mice
Protocol: The Straub-tail reaction was assayed by a standard procedure [Aceto, M. D., et. al., Brit. J. Pharmacol. 36, 225-239, 1969].

[1] = Nilsen assay of analgetic activity; settings: in vivo
opioid-binding sites = opioid-binding sites (Cavia porcellus, UniProt A0ACM8Q262); settings: 1 nM [3H]dihydromorphine, guinea pig cerebral tissue
Protocol: Briefly, cerebral tissue from brains of male Hartley guinea pigs was homogenized in 10 volumes of ice-cold 50 mM Tris-HCl buffer (pH 7.4) for 20 sec. in a Polytron homogenizer at 3000 rpm. After centrifugation at 18,000 G for 10 min., the pellet was reconstructed to the same volume in Tris buffer. […] Samples were chilled to 0° and filtered through glass fiber filters, followed by two washes with 5 ml of ice cold Tris buffer. Radioactivity retained on the filter was determined with a liquid scintillation counter. Nonspecific binding of [^3 H]dihydromorphine was determined in the presence of 100 nM naloxone.

[2] = system: dihydromorphine binding sites; assay: binding to dihydromorphine binding sites in rodent brain membranes (background statement)

Sequence of opioid-binding sites (A0ACM8Q262 1-400): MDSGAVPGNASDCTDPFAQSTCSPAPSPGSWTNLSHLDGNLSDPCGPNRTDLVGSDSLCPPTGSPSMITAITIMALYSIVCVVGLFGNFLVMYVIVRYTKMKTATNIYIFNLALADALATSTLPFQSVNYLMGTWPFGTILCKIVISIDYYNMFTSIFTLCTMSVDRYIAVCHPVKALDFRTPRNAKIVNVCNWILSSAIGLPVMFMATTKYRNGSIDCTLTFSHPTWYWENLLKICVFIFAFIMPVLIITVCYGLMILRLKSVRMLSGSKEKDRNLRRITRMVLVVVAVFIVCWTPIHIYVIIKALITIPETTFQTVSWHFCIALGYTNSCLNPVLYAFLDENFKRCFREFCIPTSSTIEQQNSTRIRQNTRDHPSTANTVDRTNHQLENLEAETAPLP

SMILES	ED50 Dose for Hot Plate Analgesia (NIH mice)	dose required for a greater than 45° arch of tail (Straub-tail reaction) (mice; mouse, in vivo, sc)	antagonism of the analgesia by the opioid antagonist naloxone (background statement) (NIH mice; naloxone)	Effect of Naloxone (on analgesia) (NIH mice; naloxone 5 mg/kg sc)	potency relative to morphine in a standard analgetic test (NIH mice; subcutaneously to mice)	Analgetic activity in the Nilsen assay [1]	Straub-tail reaction elicited by isolated alkaloid (mice; column fractions 108-111, mice)	Straub-tail response (mice; mice, at higher doses for epibatidine (background statement))	dose that elicited a comparable Straub-tail reaction (mice; mouse, in vivo)	effect of naloxone on the Straub-tail reaction (mice; mouse, in vivo)	blockade of the Straub-tail response by naloxone (background statement) (mice; opioid-antagonist naloxone)	activity at opioid-binding sites in words (opioid-binding sites)	IC50 (opioid-binding sites; 30 min, 25°, pH 7.4)	affinity for dihydromorphine binding sites [2]
CN1CC[C@]23c4c5ccc(O)c4O[C@H]2[C@@H](O)C=C[C@H]3[C@H]1C5 [Morphine, reference compound]	1 mg/kg	10 mg/kg												
Clc1ccc(C2CC3CCC2N3)cn1 (stereo not drawn) [Epibatidine]	0.005 mg/kg		not antagonized	No effect	two-hundred fold more potent than morphine	Analgetic activity also was apparent	elicited the Straub-tail reaction in mice	marked Straub-tail response	20 µg/kg	only slightly reduced the Straub-tail reaction	not blocked	nearly inactive	8.8 µM	very low affinity

From patent US5462956A, “Epibatidine and derivatives, compositions and methods of treating pain” (priority 1994, dated 1995)
